Reference: publication PMC8584989 (International Journal of Molecular Sciences, 2021)
pIC50: −log10 of the molar value. Where two headings read alike, the source gives them in different places.

Columns and labels:
[1] = recommended dosing of 500 mg daily; read-out: steady state Cmax; cited from earlier work
CYP3A5 = biological target: T1, CYP3A5 (Homo sapiens, UniProt P20815); assay: Vivid CYP450 Screening Kit, recombinant CYP3A5; type: in vitro ADME
T1 construct: purchased Thermo Fisher Scientific
T1 sequence (P20815 whole entry): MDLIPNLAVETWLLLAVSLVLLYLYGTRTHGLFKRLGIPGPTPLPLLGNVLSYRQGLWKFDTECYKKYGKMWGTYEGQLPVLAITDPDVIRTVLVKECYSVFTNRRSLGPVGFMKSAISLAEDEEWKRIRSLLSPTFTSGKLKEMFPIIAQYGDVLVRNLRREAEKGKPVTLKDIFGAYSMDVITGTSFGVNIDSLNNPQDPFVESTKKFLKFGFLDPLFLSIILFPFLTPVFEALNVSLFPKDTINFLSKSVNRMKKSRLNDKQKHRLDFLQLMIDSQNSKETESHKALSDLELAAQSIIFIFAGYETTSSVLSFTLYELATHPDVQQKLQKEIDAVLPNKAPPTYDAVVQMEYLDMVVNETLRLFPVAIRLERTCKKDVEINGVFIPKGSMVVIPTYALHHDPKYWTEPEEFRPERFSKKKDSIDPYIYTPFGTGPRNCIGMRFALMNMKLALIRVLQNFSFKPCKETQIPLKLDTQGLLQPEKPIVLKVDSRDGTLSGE
Description: (§1) CYP inhibitory assay was performed using Vivid CYP450 screening kit as described previously. The kits consist of microsomal fraction containing human CYP isoforms, human CYP reductase and in several cases cytochrome b5. Experiments were performed following the manufacturer’s protocol on black 96-well plates using kinetic mode. […] Then, the master mix (CYP isoenzyme with an NADPH regeneration system in buffer) was added in each well and plate was pre-incubated for 10 min. The reaction was started with the mixture of NADP^+ and Vivid substrate and the fluorescence of samples was measured in 1 min interval for 60 min using an Infinite M200 Pro microplate reader (Tecan, Männedorf, Switzerland). Data from linear phase (15 min) were used for data evaluation.

CYP2C19 = biological target: T2, CYP2C19 (Homo sapiens, UniProt P33261); assay: Vivid CYP450 Screening Kit, recombinant CYP2C19; type: in vitro ADME; conditions: recombinant enzyme; read-out: CYP2C19 inhibition IC50
T2 construct: purchased Thermo Fisher Scientific
T2 sequence (P33261 whole entry): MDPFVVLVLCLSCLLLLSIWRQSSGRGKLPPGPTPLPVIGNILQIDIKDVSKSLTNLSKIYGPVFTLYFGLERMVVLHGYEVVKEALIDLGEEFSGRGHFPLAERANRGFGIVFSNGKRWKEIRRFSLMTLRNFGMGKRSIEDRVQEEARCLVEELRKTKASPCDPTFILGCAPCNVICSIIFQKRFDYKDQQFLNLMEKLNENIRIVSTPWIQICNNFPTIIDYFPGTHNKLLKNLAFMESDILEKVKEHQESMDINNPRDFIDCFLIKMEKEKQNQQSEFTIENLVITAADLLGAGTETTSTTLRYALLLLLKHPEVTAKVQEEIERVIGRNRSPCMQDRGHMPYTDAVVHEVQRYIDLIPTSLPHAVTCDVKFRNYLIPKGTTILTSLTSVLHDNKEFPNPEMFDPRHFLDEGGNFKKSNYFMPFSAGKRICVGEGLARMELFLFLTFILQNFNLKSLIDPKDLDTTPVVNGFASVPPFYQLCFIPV
Description: as §1

ABCG2 [2] = biological target: T3, ABCG2 (Homo sapiens, UniProt Q9UNQ0); assay: Inhibitory accumulation assay in MDCKII-ABCG2 cells; type: cell-based
T3 sequence (Q9UNQ0 1-655): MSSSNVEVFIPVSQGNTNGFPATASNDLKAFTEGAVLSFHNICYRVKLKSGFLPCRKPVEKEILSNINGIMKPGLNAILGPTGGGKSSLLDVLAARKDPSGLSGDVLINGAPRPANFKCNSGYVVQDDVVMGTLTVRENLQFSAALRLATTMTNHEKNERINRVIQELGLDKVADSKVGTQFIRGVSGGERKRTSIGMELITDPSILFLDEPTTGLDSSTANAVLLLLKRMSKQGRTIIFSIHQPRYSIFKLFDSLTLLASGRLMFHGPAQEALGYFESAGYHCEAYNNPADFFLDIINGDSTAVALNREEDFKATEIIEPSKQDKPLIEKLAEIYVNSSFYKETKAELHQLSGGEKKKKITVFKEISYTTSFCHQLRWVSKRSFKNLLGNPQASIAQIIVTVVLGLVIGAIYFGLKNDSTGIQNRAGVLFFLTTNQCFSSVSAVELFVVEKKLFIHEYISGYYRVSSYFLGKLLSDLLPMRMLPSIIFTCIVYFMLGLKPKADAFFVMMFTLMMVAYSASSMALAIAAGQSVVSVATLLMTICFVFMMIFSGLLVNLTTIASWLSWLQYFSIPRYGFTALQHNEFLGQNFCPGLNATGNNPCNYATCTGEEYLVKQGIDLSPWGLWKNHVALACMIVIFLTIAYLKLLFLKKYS
Description: (§2) Accumulation assays were performed as described previously. […] The daunorubicin and mitoxantrone accumulation assays were performed in above mentioned cell lines and were also adopted to primary NSCLC cultures. […] Cells were incubated up to 70-80% confluence for approximately 24 h. […] The cells there trypsinized on ice, resuspended with 2% FBS in cold PBS solution and then fluorescence was detected using flow cytometer (BD FACSCanto II, Allschwil, Switzerland). […] For data presentation, the ratios of relative fluorescence units (RFUs) from treated samples to RFUs from vehicle-treated (control) cells were computed generating “relative substrate accumulation”.

ABCC1 [3] = biological target: T4, ABCC1 (Homo sapiens, UniProt P33527); assay: Inhibitory accumulation assay in MDCKII-ABCC1 cells; type: cell-based
T4 sequence (P33527 whole entry): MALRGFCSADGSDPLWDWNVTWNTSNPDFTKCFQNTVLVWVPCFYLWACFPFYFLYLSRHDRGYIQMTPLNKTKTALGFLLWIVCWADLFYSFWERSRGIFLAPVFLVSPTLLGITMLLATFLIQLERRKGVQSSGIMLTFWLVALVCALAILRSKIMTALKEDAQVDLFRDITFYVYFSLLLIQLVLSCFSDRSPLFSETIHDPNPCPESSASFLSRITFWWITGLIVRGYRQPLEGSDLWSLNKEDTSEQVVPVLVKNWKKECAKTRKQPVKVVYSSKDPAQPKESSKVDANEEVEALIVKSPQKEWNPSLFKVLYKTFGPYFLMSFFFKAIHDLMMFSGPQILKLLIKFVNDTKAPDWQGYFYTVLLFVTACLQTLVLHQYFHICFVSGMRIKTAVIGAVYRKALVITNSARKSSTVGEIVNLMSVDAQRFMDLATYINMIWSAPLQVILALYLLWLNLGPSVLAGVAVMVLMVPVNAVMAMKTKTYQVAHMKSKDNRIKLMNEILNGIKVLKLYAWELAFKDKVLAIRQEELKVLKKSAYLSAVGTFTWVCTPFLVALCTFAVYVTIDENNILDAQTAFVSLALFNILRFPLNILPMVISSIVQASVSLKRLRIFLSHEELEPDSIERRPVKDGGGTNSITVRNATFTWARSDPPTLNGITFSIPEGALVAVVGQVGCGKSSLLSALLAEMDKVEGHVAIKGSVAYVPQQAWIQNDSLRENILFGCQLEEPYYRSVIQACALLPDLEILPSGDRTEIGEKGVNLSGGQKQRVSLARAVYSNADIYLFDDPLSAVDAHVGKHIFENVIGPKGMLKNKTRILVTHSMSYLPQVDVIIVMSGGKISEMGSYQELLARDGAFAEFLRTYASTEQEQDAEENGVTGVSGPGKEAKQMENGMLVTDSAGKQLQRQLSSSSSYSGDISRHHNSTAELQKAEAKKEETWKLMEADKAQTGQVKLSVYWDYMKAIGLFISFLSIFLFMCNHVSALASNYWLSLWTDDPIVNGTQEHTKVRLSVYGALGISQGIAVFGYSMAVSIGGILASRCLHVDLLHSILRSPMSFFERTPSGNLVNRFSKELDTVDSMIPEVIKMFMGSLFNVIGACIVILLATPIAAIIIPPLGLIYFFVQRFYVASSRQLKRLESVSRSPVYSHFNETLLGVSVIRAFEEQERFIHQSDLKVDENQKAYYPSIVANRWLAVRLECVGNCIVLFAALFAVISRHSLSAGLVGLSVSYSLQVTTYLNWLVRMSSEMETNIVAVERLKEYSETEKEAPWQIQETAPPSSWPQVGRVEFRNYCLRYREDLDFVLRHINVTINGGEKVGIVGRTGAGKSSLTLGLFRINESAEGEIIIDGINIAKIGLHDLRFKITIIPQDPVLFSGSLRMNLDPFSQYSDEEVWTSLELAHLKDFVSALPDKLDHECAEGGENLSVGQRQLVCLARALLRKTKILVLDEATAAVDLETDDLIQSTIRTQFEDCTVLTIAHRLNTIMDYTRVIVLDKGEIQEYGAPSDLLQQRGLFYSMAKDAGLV
Description: as §2

A431-par cells = assay: MTT proliferation / drug combination assay; type: cell-based; conditions: 48 h, read-out: A431-par IC50
Description: These colorimetric assays were used in various studies presented in this paper (prior induction studies, MDR reversal experiments and comparative viability assays) and were performed as reported previously. […] In MTT experiments, cells were seeded on a 96-well culture plate at densities (in number of cells/well) of 1.3 × 10^4 for MDCKII-par, MDCKII-ABCB1 and MDCKII-ABCG2; 1.2 × 10^4 for A431-par, A431-ABCB1, A431-ABCG2 and A431-ABCC1; 1.2 × 10^4 for NCI-H1299; 1.0 × 10^4 for A459; 2.0 × 10^4 for Caco-2; 5.0 × 10^4 for LS174T; and 1.0 × 10^4 for primary NSCLC explants. On the other hand, for XTT cells were seeded with densities 2.0 × 10^4 for HL60-par, HL60-ABCB1, HL60-ABCG2 and HL60-ABCC1 cells/well on 96-well plates. […] Following 48 h incubation with drugs, Opti-MEM solutions of MTT or XTT (1 mg/mL) with phenazine methosulfate solution (7.50 μg/mL; only for XTT) was added and the cells were incubated for 1 h with the exception of HL60s that were incubated for 5 h.
Based on the computed CI values, the effects of drug combinations were classified as synergistic (CI < 0.9), additive (0.9 < CI < 1.1) or antagonistic (CI > 1.1).

CYP1A2 = biological target: T5, CYP1A2 (Homo sapiens, UniProt P05177); assay: Vivid CYP450 Screening Kit, recombinant CYP1A2; type: in vitro ADME
T5 construct: purchased Thermo Fisher Scientific
T5 sequence (P05177 2-516 limits assumed): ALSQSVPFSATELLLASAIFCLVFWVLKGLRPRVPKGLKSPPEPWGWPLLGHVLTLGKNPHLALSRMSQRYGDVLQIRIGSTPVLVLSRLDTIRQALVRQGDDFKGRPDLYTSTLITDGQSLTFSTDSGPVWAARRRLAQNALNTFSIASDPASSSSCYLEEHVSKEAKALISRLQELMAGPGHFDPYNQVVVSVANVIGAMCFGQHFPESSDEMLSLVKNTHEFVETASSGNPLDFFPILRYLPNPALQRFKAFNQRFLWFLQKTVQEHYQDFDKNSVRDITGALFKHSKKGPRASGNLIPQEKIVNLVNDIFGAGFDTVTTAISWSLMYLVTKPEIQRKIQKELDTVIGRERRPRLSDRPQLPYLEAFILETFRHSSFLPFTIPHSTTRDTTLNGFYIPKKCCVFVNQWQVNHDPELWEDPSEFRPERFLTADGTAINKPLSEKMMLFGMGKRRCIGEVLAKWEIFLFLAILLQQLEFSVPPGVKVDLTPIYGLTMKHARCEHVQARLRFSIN
Description: as §1

ABCC1 [4] = biological target: T4, ABCC1; assay: MDCKII cellular monolayer transport assay; type: in vitro ADME; conditions: 1 µM tepotinib, 4 h
Description: (§3) This assay was performed as described previously. […] The Transwells were incubated until full confluence for 7 days with media replacement every 2 days. Prior addition of tested drugs, inserts were washed with 1 × PBS on both apical and basal sides. […] Samples were then collected from the acceptor chambers at 0.5, 1, 2 and 4 h intervals. Cellular monolayers’ integrity was verified using fluorescein isothiocyanate-labeled dextran (MW = 40 kDa) accepting leakage up to 5% per hour.

ABCG2 [5] = biological target: T3, ABCG2; assay: MDCKII cellular monolayer transport assay; type: in vitro ADME; conditions: 1 µM tepotinib, 4 h
Description: as §3

ABCB1 = ABCB1 (Homo sapiens, UniProt P08183); assay: MDCKII cellular monolayer transport assay; type: in vitro ADME; conditions: 1 µM tepotinib, 4 h, asymmetry aborted by 1 µM LY335979
Sequence of ABCB1 (P08183 whole entry): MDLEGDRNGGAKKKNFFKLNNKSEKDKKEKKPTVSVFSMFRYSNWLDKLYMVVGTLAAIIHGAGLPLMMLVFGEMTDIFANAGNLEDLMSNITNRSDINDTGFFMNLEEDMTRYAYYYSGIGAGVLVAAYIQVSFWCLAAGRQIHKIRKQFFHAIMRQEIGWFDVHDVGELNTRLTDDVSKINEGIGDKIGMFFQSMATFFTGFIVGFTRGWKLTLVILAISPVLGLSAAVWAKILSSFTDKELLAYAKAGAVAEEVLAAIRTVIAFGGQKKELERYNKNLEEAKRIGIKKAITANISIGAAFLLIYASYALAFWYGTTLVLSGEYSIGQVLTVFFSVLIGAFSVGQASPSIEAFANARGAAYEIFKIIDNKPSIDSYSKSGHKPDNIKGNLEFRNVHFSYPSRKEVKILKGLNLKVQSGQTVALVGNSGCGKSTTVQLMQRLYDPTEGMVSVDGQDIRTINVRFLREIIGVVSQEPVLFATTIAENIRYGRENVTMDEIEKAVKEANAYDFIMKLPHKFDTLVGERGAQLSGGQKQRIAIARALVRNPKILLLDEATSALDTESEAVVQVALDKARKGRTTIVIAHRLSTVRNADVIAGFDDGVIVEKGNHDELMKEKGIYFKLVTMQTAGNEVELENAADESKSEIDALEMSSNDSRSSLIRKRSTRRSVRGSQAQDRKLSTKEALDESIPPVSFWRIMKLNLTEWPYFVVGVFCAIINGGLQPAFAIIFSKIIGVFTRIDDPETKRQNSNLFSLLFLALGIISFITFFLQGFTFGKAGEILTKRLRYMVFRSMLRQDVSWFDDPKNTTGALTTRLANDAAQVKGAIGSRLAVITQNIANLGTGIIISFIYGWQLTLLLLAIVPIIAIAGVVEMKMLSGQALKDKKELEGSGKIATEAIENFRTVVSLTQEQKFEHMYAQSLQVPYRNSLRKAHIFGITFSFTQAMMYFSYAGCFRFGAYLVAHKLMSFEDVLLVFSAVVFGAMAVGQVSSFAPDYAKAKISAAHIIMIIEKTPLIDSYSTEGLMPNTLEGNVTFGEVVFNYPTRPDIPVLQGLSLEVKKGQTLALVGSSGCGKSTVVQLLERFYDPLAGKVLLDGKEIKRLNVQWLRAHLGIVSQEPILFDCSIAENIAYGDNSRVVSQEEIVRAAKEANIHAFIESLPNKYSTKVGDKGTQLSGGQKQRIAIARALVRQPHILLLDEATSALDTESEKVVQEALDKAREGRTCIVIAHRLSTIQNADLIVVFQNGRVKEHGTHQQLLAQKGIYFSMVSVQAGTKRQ
Description: as §3

What does the source list for `CN1CCC(COc2cnc(-c3cccc(Cn4nc(-c5cccc(C#N)c5)ccc4=O)c3)nc2)CC1` [tepotinib, Tepotinib]?
Cmax [1]: 2620 nM; pIC50 (CYP3A5): 4.41; pIC50 (CYP2C19): 4.77; pIC50 (ABCG2 [2]; 5 µM mitoxantrone, 1 h, read-out: IC50, relative mitoxantrone accumulation): 4.52; pIC50 (ABCG2 [2]; 8 µM hoechst 33342, read-out: IC50, relative Hoechst 33342 accumulation): 4.80; pIC50 (ABCC1 [3]; 2 µM calcein AM, read-out: IC50, relative calceinAM accumulation): 4.61; pIC50 (ABCC1 [3]; 2 µM daunorubicin, 1 h, read-out: IC50, relative daunorubicin accumulation): < 4.30; pIC50 (A431-par cells): 4.80; pIC50 (CYP1A2): < 4.30; Substrate affinity for ABCC1 (ABCC1 [4]): No substrate affinities; Substrate affinity for ABCG2 (ABCG2 [5]): No substrate affinities; Substrate affinity for ABCB1 (transport asymmetry) (ABCB1): ABCB1 substrate
